Assay results: patent publication US10232020B2, “Incretin-insulin conjugates” (priority 2014, dated 2019)
Starred links: 1 amine or outer side, 2 acyl side, 3 side chain; linkers in the order of their positions; H or OH if unused. Non-standard residues stand in square brackets, D forms with d. Groups on a side chain read outwards from the residue. No end group written: not given here. *: point of attachment. γGlu = O=C(O)[C@H](CCC(=O)[*:2])N[*:1]; Palmitoyl = CCCCCCCCCCCCCCCC(=O)*; Aib = CC(C)(N)C(=O)O

Columns and labels:
physchem = assay: physchem
Method: The rate of cleavage was determined for the respective propeptides. The concentrations of the propeptides and the model parent peptide were determined by their respective peak areas. […] The slope of this plot provides the rate constant ‘k’.

insulin receptor (IR-B) = biological target: T1, insulin receptor (IR-B) (Homo sapiens, UniProt P06213); assay: In vitro activity at insulin B receptor (IR-B); type: cell-based; details: Table 4; read-out: Normalized IR-B EC50 (nM) MEAN
T1 construct: expressed in transfected cells
Method: Color development was stopped 5 min later by adding 0.05 ml 1 N HCl. Absorbance at 450 nm was measured on Titertek Multiscan MCC340 (ThermoFisher, Pittsburgh, Pa.). […] Structures associated with the abbreviated lipidated groups designated in Table 4 are as follows: […]

GLP-1 receptor = biological target: T2, GLP-1 receptor (Homo sapiens, UniProt P43220); assay: cAMP synthesis luciferase reporter assay in HEK293 cells, GLP-1 receptor; type: cell-based; details: for EC50: read-out: Normalized GLP-1 EC50 (nM) MEAN, Table 4
T2 construct: expressed in transfected cells; host or cells: HEK293
T2 sequence (P43220 24-463, species assumed): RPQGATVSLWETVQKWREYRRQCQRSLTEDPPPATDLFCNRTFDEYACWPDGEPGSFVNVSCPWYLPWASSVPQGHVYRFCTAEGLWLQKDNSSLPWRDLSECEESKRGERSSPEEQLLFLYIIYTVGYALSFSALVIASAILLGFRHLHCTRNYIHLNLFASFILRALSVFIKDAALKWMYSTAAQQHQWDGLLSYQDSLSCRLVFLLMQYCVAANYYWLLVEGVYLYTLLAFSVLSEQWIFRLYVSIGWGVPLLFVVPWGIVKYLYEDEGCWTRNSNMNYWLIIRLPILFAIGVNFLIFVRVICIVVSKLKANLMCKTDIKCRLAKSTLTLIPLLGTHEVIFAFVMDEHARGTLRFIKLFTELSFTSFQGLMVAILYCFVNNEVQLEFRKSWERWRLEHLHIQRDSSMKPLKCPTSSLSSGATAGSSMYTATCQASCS
Excerpt: (§1) Structures associated with the abbreviated lipidated groups designated in Table 4 are as follows: […]

GIP receptor [1] = biological target: T3, GIP receptor (Homo sapiens, UniProt P48546); assay: cAMP synthesis luciferase reporter assay in HEK293 cells, GIP receptor; type: cell-based; details: read-out: Normalized GIP EC50 (nM) MEAN; Table 4
T3 construct: expressed in transfected cells; host or cells: HEK293
T3 sequence (P48546 22-466): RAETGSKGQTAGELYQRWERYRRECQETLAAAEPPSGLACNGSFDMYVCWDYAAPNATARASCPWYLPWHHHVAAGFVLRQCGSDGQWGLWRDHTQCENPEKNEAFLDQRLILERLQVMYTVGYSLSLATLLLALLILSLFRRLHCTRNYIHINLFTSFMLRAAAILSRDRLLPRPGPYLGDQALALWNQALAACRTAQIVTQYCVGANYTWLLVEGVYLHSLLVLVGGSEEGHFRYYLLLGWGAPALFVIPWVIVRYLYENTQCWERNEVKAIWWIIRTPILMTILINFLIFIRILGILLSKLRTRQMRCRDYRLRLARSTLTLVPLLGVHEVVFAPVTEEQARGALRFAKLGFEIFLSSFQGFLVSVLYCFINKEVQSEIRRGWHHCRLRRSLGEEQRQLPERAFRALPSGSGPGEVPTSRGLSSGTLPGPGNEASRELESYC
Excerpt: as §1

GIP receptor [2] = biological target: T3, GIP receptor; details: general statement; cited from earlier work
[3] = particularly at physiological pH; cited from earlier work
diabetic mice [4] = assay: Blood glucose, food intake and body weight in diabetic mice; type: in vivo; details: for body weight: FIG. 17D; for blood glucose levels and duration of action: FIG. 15B
Method: Six- to eight-week-old male C57BL/6 mice were maintained at 23° C., constant humidity, and a 12-h light-dark cycle. The acute in vivo effects of select peptides were evaluated by subcutaneously injecting peptides solubilized in physiologically buffered saline or a vehicle control to normal or diabetic mice. Blood glucose was measured at various time points through the course of a 24 hr period following administration of the peptides. Each group of mice contained 8 animals per group. The average body weight was ˜25 g. Mice were made diabetic by administration of streptozotocin.
Repeat daily subcutaneous administration of the peptides or vehicle control was administered to the mice for periods of five days to two weeks. The obese mice were given a diabetogenic diet Mice had free access to water and were fed ad libitum with a high fat diet (HFD) comprising 58% of calories from fat (D12331; Research Diets, New Brunswick, N.J.) and each group of mice contained 8 animals per group. The average body weight was ˜50 g and the mice were ˜6 months old males. Body weight and food intake were measured on the days that peptide or vehicle control was administered to the mice. Fasting blood glucose levels were measured repeatedly.

diabetic mice [5] = assay: as above; type: in vivo; details: four days; for weight loss: daily or twice a day, FIG. 14B

GPHSRGTF-NH2 [Table 3 no. 3: G, P, H-SRGTF-NH2]
t1/2 (physchem; buffer): No cleavage

CIU-055: HXEGTFTSDVSSYLEEQAAREFIAWLVRGGPSSGAPPPSK(20K PEG) (SEQ ID NO: 1974); C(S-S)—CH2CH2CH2-B^1 DesDi
EC50 (insulin receptor (IR-B)): 1140 nM

SEQ ID NO: 128: glucagon analog substituting the native glutamine at position 3 with glutamic acid
selectivity for the GLP-1 receptor (GLP-1 receptor; versus glucagon receptor): tenfold

CPHSRGTF-NH2 [Table 3 no. 6: C, P, H-SRGTF-NH2]
t1/2 (physchem; buffer): No cleavage

KPHSRGTF-NH2 [Table 3 no. 9: K, P, H-SRGTF-NH2]
t1/2 (physchem; Table 3, words or unit not given, PBS): No cleavage

C[C@@H](O)[C@H](NC(=O)CNC(=O)[C@H](CCCNC(=N)N)NC(=O)[C@H](CO)NC(=O)[C@H](Cc1c[nH]cn1)NC(=O)[C@@H]1CCCN1C(=O)[C@H]1CCCN1)C(=O)N[C@@H](Cc1ccccc1)C(N)=O [Table 3 no. 13: d-P, P, H-SRGTF-NH2]
t1/2 (physchem; buffer): No cleavage

CIU-123: HXEGTFTSDUSIYLDKQAAXEFVNWLLAGGPSSGAPPPS (SEQ ID NO: 2013); C(S-S)—CH2CH2CH2-B^1Desdi (H[Aib]EGTFTSDK([γGlu-Palmitoyl])SIYLDKQAA[Aib]EFVNWLLAGGPSSGAPPPS; also: disulfide-linked propyl to B1 of desdi insulin, site not given here)
EC50 (GLP-1 receptor): 0.0032 nM
EC50 (GIP receptor [1]): 0.0036 nM

C[C@@H](O)[C@H](NC(=O)CNC(=O)[C@H](CCCNC(=N)N)NC(=O)[C@H](CO)NC(=O)[C@H](Cc1c[nH]cn1)NC(=O)[C@H]1CCCN1C(=O)[C@@H]1CCCN1)C(=O)N[C@@H](Cc1ccccc1)C(N)=O [Table 3 no. 12: P, d-P, H-SRGTF-NH2]
t1/2 (physchem; buffer): No cleavage

C[C@@H](O)[C@H](NC(=O)CNC(=O)[C@H](CCCNC(=N)N)NC(=O)[C@H](CO)NC(=O)[C@H](Cc1c[nH]cn1)NC(=O)[C@@H](N)Cc1ccc(NC(=O)CNC(=O)CN)cc1)C(=O)N[C@@H](Cc1ccccc1)C(N)=O
t1/2 (physchem; Table 2, result in words, PBS): No cleavage

Native glucagon: peptide consisting of the sequence of SEQ ID NO: 701
activation of the GIP receptor (GIP receptor [2]): does not activate the GIP receptor
solubility in aqueous solution [3]: poor solubility in aqueous solution

CIU-004: XEGTFTSDVSSYLEEQAAKEFIAWLVKGGPSSGAPPPS (SEQ ID NO: 1945); C(S-S)—CH2CH2CH2-B^1 Insulin (conjugate chemistry not built)
EC50 (GLP-1 receptor): 7.96 nM
EC50 (insulin receptor (IR-B)): 0.59 nM

SPHSRGTF-NH2 [Table 3 no. 7: S, P, H-SRGTF-NH2]
t1/2 (physchem; buffer): No cleavage

C[C@@H](O)[C@H](NC(=O)CNC(=O)[C@H](CCCNC(=N)N)NC(=O)[C@H](CO)NC(=O)[C@H](Cc1c[nH]cn1)NC(=O)[C@@H]1CCCN1C(=O)CO)C(=O)N[C@@H](Cc1ccccc1)C(N)=O
t1/2 (physchem; buffer): No cleavage

CIU-037: HXEGTFTSDVSSYLEEQAAREFIAWLVRGGPSSGAPPPSK(20K PEG) (SEQ ID NO: 1966); C(S-S)—CH2CH2CH2-B^1 Insulin
blood glucose levels (diabetic mice [4]; 1, 2.5 or 5 nmol/kg, seven days, FIG. 17B): improved blood glucose levels achieved relative to pegylated insulin
blood glucose levels (diabetic mice [4]; 5, 10 or 20 nmol/kg, FIG. 16B): blood glucose levels inversely proportional to the dose administered
fat mass and lean mass (diabetic mice [4]; FIG. 17E): comes from fat mass and not lean mass
food intake (diabetic mice [4]; seven days, FIG. 17C): suppress food intake
body weight (diabetic mice [4]; seven days): induces loss in body weight

APHSRGTF-NH2 [Table 3 no. 5: A, P, H-SRGTF-NH2]
t1/2 (physchem; buffer): No cleavage

C[C@@H](O)[C@H](NC(=O)CNC(=O)[C@H](CCCNC(=N)N)NC(=O)[C@H](CO)NC(=O)[C@H](Cc1c[nH]cn1)NC(=O)[C@@H](N)Cc1ccc(NC(=O)CNC(=O)CO)cc1)C(=O)N[C@@H](Cc1ccccc1)C(N)=O
t1/2 (physchem; Table 2, result in words, PBS): No cleavage

CNC(C)(C)C(=O)N1CCC[C@H]1C(=O)N[C@@H](Cc1c[nH]cn1)C(=O)N[C@@H](CO)C(=O)N[C@@H](CCCNC(=N)N)C(=O)NCC(=O)N[C@H](C(=O)N[C@@H](Cc1ccccc1)C(N)=O)[C@@H](C)O [Table 3 no. 19: N—Me-Aib, P, H-SRGTF-NH2]
half-life (physchem; buffer): > 20.8 days

CIU-021: HXEGTFTSDUSSYLEEQAAKEFIAWLVKGGPSSGAPPPSG (SEQ ID NO: 1958); Pen(S-S)—CH2CH2CH2-B^1 Insulin
blood glucose levels and duration of action (diabetic mice [4]): demonstrate activity in reducing blood glucose levels and demonstrate an extended duration of action relative to native insulin

EPHSRGTF-NH2 [Table 3 no. 10: E, P, H-SRGTF-NH2]
t1/2 (physchem; buffer): No cleavage

CIU-012: HXEGTFTSDUSSYLEEQAAKEFIAWLVKGGPSSGAPPPSG (SEQ ID NO: 1953); C(S-S)—CH2CH2CH2-B^1 Insulin
blood glucose levels and duration of action (diabetic mice [4]): demonstrate activity in reducing blood glucose levels and demonstrate an extended duration of action relative to native insulin

CIU-146: YXEGTFTSDU2SIYLDKQAAXEFVNWLLAGGPSSGAPPPS (SEQ ID NO: 2014); C(S-S)—CH2CH2CH2-B^1Desdi (Y[Aib]EGTFTSDKSIYLDKQAA[Aib]EFVNWLLAGGPSSGAPPPS; not fully specified (residue 10, C-terminus); also: disulfide-linked propyl to B1 of desdi insulin, site not given here)
EC50 (GIP receptor [1]): 0.0014 nM

CIU-013: HXEGTFTSDVSSYLEEQAAKEFIAWLVKGGPSSGAPPPSGU (SEQ ID NO: 1954); C(S-S)—CH2CH2CH2-B^1 Insulin
food intake (diabetic mice [5]; FIG. 14C): suppresses food intake relative to the administration of the pegylated insulin analog
weight loss (diabetic mice [5]): produced significant weight loss
lowering blood glucose (diabetic mice [4]; 5, 15 or 20 nmoles/kg, FIG. 11B): all doses of the compound are effective in lowering blood glucose
food intake (diabetic mice [4]; FIG. 13): suppressing food intake
blood glucose levels and duration of action (diabetic mice [4]): demonstrate activity in reducing blood glucose levels and demonstrate an extended duration of action relative to native insulin
blood glucose (diabetic mice [4]; daily or 2× a day, one fifth the dosage of the pegylated insulin, FIG. 14D): would appear to not be as effective as insulin
24 hour blood glucose (diabetic mice [4]; second administration at 6 hours, 10 nmole/kg(×2), FIG. 12B): about 100 mg/dL

FPHSRGTF-NH2 [Table 3 no. 1: F, P, H-SRGTF-NH2]
t1/2 (physchem; buffer): No cleavage

CIU-26: pegylated native insulin (20 K PEG linked to the B29 side chain) [reference compound]
weight loss (diabetic mice [5]): failed to induce weight loss
food intake (diabetic mice [4]; FIG. 13): does not
food intake (diabetic mice [4]; FIG. 16C): did not
food intake (diabetic mice [4]; seven days, FIG. 17C): does not
body weight (diabetic mice [4]; seven days): not

CC(C)=C(N)C(=O)N1CCC[C@H]1C(=O)N[C@@H](Cc1c[nH]cn1)C(=O)N[C@@H](CO)C(=O)N[C@@H](CCCNC(=N)N)C(=O)NCC(=O)N[C@H](C(=O)N[C@@H](Cc1ccccc1)C(N)=O)[C@@H](C)O
t1/2 (physchem; buffer): No cleavage

C[C@@H](O)[C@H](NC(=O)CNC(=O)[C@H](CCCNC(=N)N)NC(=O)[C@H](CO)NC(=O)[C@H](Cc1c[nH]cn1)NC(=O)[C@@H]1CCCN1C(=O)[C@@H](O)Cc1ccccc1)C(=O)N[C@@H](Cc1ccccc1)C(N)=O
t1/2 (physchem; buffer): No cleavage

C[C@@H](O)[C@H](NC(=O)CNC(=O)[C@H](CCCNC(=N)N)NC(=O)[C@H](CO)NC(=O)[C@H](Cc1c[nH]cn1)NC(=O)[C@@H]1CCCN1C(=O)[C@@H]1CCCN1)C(=O)N[C@@H](Cc1ccccc1)C(N)=O [Table 3 no. 8: P, P, H-SRGTF-NH2]
t1/2 (physchem; buffer): No cleavage
